Where a name gives a salt, the structure may show the parent alone. Read-outs that look alike come from different tables or passages of the source.

The test system of test [1] is FCR3 strain, a drug sensitive strain of Plasmodium falciparum. Briefly: In vitro antimalarial assay (p-LDH, Malstat), FCR3 strain. The test is classed as cell-based. The conditions noted are these: P. falciparum FCR3 (drug sensitive), 72 h culture, p-LDH readout, read-out: Antimalarial activity (IC50 value), Strain FCR3. The text has this:
(§1) For the evaluation of the antimalarial activity of the compound of the present invention, K1 strain, a drug resistant strain of Plasmodium falciparum, and FCR3 strain, a drug sensitive strain thereof, which were generous gift from Professor Kiyoshi Kita of the Graduate School of Medicine and Faculty of Medicine, the University of Tokyo, were used to measure the in vitro antimalarial activity of the compound against those Plasmodium species according to the method established by Otoguro et al. (Otoguro, K., Kohana, A., Manabe, C., Ishiyama, A., Ui, H., Shiomi, K., Yamada, H. & Omura, S.: Potent antimalarial activity of polyether antibiotic, X-206. J. Antibiot., 54: 658-663, (2001)).
(§2) The parasites were grown based on a slightly modified method from the original method reported by Trager and Jensen (Trager, W. and Jensen, J.: Human malaria parasites in continuous culture, Science, 193: 673-677, (1976)), and those which were maintained and sub-cultured by the method were used. More specifically, in a culture dish, erythrocytes infected with the protozoa, which had been sub-cultured using a RPMI 1640 medium to which 10% human plasma had been added and fresh human erythrocytes, were diluted (hematocrit value: 2 to 5%, parasitaemia: 0.25 to 1%), and were cultured at 37° C. in a mixed gas of 3% O2-4% CO2-93% N2, and continuously cultured while changing the medium and adding fresh erythrocytes at 2- or 3-day intervals.
(§3) A drug susceptibility test was performed by modifying the method established by Desjardins et al. (Desjardins, R. E., Canfield, C. J., Haynes, D. E. and Chulay, J. D.: Quantitative assessment of antimalarial activity in vitro by a semiautomated microdilution technique. Antimicrob. Agents Chemother., 16: 710-718 (1979)). More specifically, 190 μL of a suspension of protozoa which had been precultured (hematocrit value: 2%, parasitaemia: 0.5 or 1%) and 10 μL of a solution of a test compound (5% DMSO solution) serially diluted so that the final concentration was 12.5 to 0.0001 μM were put in each well of a 96-well plate, and after mixing, the same was cultured for 72 hours in the above mixed gas.
(§4) For the measurement of the growth of protozoa, the method established by Makler (Makler, M. T., Rise, J. M., Williams, J. A., Bancroft, J. E., Piper, R. C., Gibbins, B. L. and Hinrichs, D. J.: Parasite lactate dehydrogenase as an Assay for Plasmodium falciparum drug sensitivity, Am. J. Med. Hyg., 48: 739-741 (1993)) was modified to colorimetrically determine parasite lactate dehydrogenase (p-LDH) using Malstat reagent (Flow Inc., USA).
(§5) More specifically, 72 hours after the culture, the 96-well plate was directly frozen at −20° C. for 18 hours and melted at 37° C. to hemolyze the protozoan-infected erythrocytes and destroy the protozoa to prepare a crude enzyme solution. 100 μL of Malstat reagent and 20 μL of the crude enzyme solution were added to and mixed in each well of another 96-well plate, and after reacting for 15 minutes at room temperature, 20 μL of a nitroblue tetrazolium 2 mg/mL phenazine ethosulfate 0.1 mg/mL=1:1 solution was added to the respective wells, and reaction was performed in dark conditions at room temperature for 2 hours.
(§6) The absorbance of the blue formazan product formed by the reaction was measured at a measurement wavelength of 655 nm by using a microplate reader (Labsystems, Finland) to colorimetrically determine the growth of the protozoa. The 50% growth inhibitory concentration for the protozoa of the compound (IC50 value) was determined based on the concentration-response curve of the compound.

For test [2], the system named is K1 strain, a drug resistant strain of Plasmodium falciparum. Briefly: In vitro antimalarial assay (p-LDH, Malstat), K1 strain. The test is classed as cell-based. The conditions noted are these: read-out: Antimalarial activity (IC50 value), Strain K1.
From the text: as §1, §2, §3, §4, §5, §6

Setting [3] is: P. falciparum K1 (drug resistant), 72 h culture, p-LDH readout.

One may read the IC50 as the concentration needed to halve the response being measured. As to `Cc1cc(C)nc(Nc2nc(Nc3ccn4ccnc4c3)cc(N3C[C@@H](C)[C@H](C)C3)n2)c1` (relative stereo) [Example 193, N2-(4,6-dimethylpyridin-2-yl)-6-[trans-3,4-dimethylpyrrolidin-1-yl]-N4-(imidazo[1,2-a]pyridin-7-yl)pyrimidine-2,4-diamine], the IC50 in test [1] and in test [2] (setting [3]) was below 100 nM in each case.
Turning to `COc1ccc(Nc2nc(Nc3ccn4ccnc4c3)cc(N3CCOCC3)n2)cn1` [Example 1, N4-(Imidazo[1,2-a]pyridin-7-yl)-N2-(6-methoxypyridin-3-yl)-6-morpholinopyrimidine-2,4-diamine], the half-inhibitory concentration (IC50) in test [1] and in test [2] (setting [3]) was below 100 nM throughout.
In the case of `Cc1cc(C)nc(Nc2nc(Nc3ccn4ccnc4c3)cc(N3CCOCC3)n2)c1` [Example 2, N2-(4,6-dimethylpyridin-2-yl)-N4-(imidazo[1,2-a]pyridin-7-yl)-6-morpholinopyrimidine-2,4-diamine], the IC50 in test [1] and in test [2] (setting [3]) was below 100 nM throughout.
Consider `c1cc(Nc2nc(Nc3ccn4ccnc4c3)cc(N3CCOCC3)n2)ccn1` [Example 3, N4-(imidazo[1,2-a]pyridin-7-yl)-6-morpholino-N2-(pyridin-4-yl)pyrimidine-2,4-diamine dihydrochloride], for which, in test [2] (K1, 72 h), the half-maximal inhibitory concentration (IC50) lay in the range of 1000 to 10000 nM.
With `c1cncc(Nc2nc(Nc3ccn4ccnc4c3)cc(N3CCOCC3)n2)c1` [Example 4, N4-(Imidazo[1,2-a]pyridin-7-yl)-6-morpholino-N2-(pyridin-3-yl)pyrimidine-2,4-diamine], the concentration for half-maximal inhibition (IC50) in test [1] and in test [2] (setting [3]) was 100 to 1000 nM each time.
Regarding `COc1ncccc1Nc1nc(Nc2ccn3ccnc3c2)cc(N2CCOCC2)n1` [Example 5, N4-(Imidazo[1,2-a]pyridin-7-yl)-N2-(2-methoxypyridin-3-yl)-6-morpholinopyrimidine-2,4-diamine], the IC50 in test [1] and in test [2] (setting [3]) was 1000 to 10000 nM in each case.
Take `Fc1cncc(Nc2nc(Nc3ccn4ccnc4c3)cc(N3CCOCC3)n2)c1` [Example 6, N2-(5-Fluoropyridin-3-yl)-N 4-(imidazo[1,2-a]pyridin-7-yl)-6-morpholinopyrimidine-2,4-diamine]: the IC50 in test [1] and in test [2] (setting [3]) was 100 to 1000 nM each time.
As to `CCOc1ccc(Nc2nc(Nc3ccn4ccnc4c3)cc(N3CCOCC3)n2)cn1` [Example 7, N2-(6-Ethoxypyridin-3-yl)-N4-(imidazo[1,2-a]pyridin-7-yl)-6-morpholinopyrimidine-2,4-diamine], the 50% inhibitory concentration (IC50) in test [1] and in test [2] (setting [3]) was below 100 nM each time.
With `c1ncc(Nc2nc(Nc3ccn4ccnc4c3)cc(N3CCOCC3)n2)cn1` [Example 8, N4-(Imidazo[1,2-a]pyridin-7-yl)-6-morpholino-N2-(pyrimidin-5-yl)pyrimidine-2,4-diamine], the half-inhibitory concentration (IC50) in test [1] was 100 to 1000 nM; in test [2] (setting [3]), 1000 to 10000 nM.
As to `Cc1cccnc1Nc1nc(Nc2ccn3ccnc3c2)cc(N2CCOCC2)n1` [Example 9, N4-(Imidazo[1,2-a]pyridin-7-yl)-N2-(3-methylpyridin-2-yl)-6-morpholinopyrimidine-2,4-diamine], the values for the half-inhibitory concentration (IC50) in test [1] and in test [2] (setting [3]) were below 100 nM and 100 to 1000 nM, respectively.
For `Cc1cccc(Nc2nc(Nc3ccn4ccnc4c3)cc(N3CCOCC3)n2)n1` [Example 10, N4-(Imidazo[1,2-a]pyridin-7-yl)-N2-(6-methylpyridin-2-yl)-6-morpholinopyrimidine-2,4-diamine], the IC50 in test [1] and in test [2] (setting [3]) was below 100 nM in each case.
Turning to `Fc1ncccc1Nc1nc(Nc2ccn3ccnc3c2)cc(N2CCOCC2)n1` [Example 11, N2-(2-Fluoropyridin-3-yl)-N4-(imidazo[1,2-a]pyridin-7-yl)-6-morpholinopyrimidine-2,4-diamine], the IC50 lay within 100 to 1000 nM in test [1] and 1000 to 10000 nM in test [2] (setting [3]).
For `Fc1ccc(Nc2nc(Nc3ccn4ccnc4c3)cc(N3CCOCC3)n2)cn1` [Example 12, N2-(6-Fluoropyridin-3-yl)-N4-(imidazo[1,2-a]pyridin-7-yl)-6-morpholinopyrimidine-2,4-diamine], in that order: 100 to 1000 nM and 100 to 1000 nM.
For `Fc1ccc(Nc2nc(Nc3ccn4ccnc4c3)cc(N3CCOCC3)n2)nc1` [Example 13, N2-(5-Fluoropyridin-2-yl)-N4-(imidazo[1,2-a]pyridin-7-yl)-6-morpholinopyrimidine-2,4-diamine], in that order: below 100 nM and 100 to 1000 nM.
Take `Fc1cccc(Nc2nc(Nc3ccn4ccnc4c3)cc(N3CCOCC3)n2)n1` [Example 14, N2-(6-Fluoropyridin-2-yl)-N4-(imidazo[1,2-a]pyridin-7-yl)-6-morpholinopyrimidine-2,4-diamine]: the IC50 was 100 to 1000 nM in test [1] and 1000 to 10000 nM in test [2] (setting [3]).
For `CC(C)Oc1ccc(Nc2nc(Nc3ccn4ccnc4c3)cc(N3CCOCC3)n2)cn1` [Example 15, N4-(Imidazo[1,2-a]pyridin-7-yl)-N2-(6-isopropoxypyridin-3-yl)-6-morpholinopyrimidine-2,4-diamine], in that order: below 100 nM and below 100 nM.
On to `c1cnc(Nc2nc(Nc3ccn4ccnc4c3)cc(N3CCOCC3)n2)nc1` [Example 16, N4-(Imidazo[1,2-a]pyridin-7-yl)-6-morpholino-N2-(pyrimidin-2-yl)pyrimidine-2,4-diamine], for which the half-inhibitory concentration (IC50) in test [2] (setting [3]) lay within 1000 to 10000 nM.
Turning to `Cc1ccnc(Nc2nc(Nc3ccn4ccnc4c3)cc(N3CCOCC3)n2)c1` [Example 17, N4-(Imidazo[1,2-a]pyridin-7-yl)-N2-(4-methylpyridin-2-yl)-6-morpholinopyrimidine-2,4-diamine], the 50% inhibitory concentration (IC50) in test [1] and in test [2] (setting [3]) was below 100 nM throughout.
`Cc1ccc(Nc2nc(Nc3ccn4ccnc4c3)cc(N3CCOCC3)n2)nc1` [Example 18, N4-(Imidazo[1,2-a]pyridin-7-yl)-N2-(5-methylpyridin-2-yl)-6-morpholinopyrimidine-2,4-diamine]: the concentration for half-maximal inhibition (IC50) in test [1] and in test [2] (setting [3]) was below 100 nM throughout.
In the case of `COc1cncc(Nc2nc(Nc3ccn4ccnc4c3)cc(N3CCOCC3)n2)c1` [Example 19, N4-(Imidazo[1,2-a]pyridin-7-yl)-N2-(5-methoxypyridin-3-yl)-6-morpholinopyrimidine-2,4-diamine], the IC50 in test [1] and in test [2] (setting [3]) was 100 to 1000 nM in each case.
On to `Oc1ccc(Nc2nc(Nc3ccn4ccnc4c3)cc(N3CCOCC3)n2)cn1` [Example 24, 5-(4-(Imidazo[1,2-a]pyridin-7-ylamino)-6-morpholinopyrimidin-2-ylamino)pyridin-2-ol], for which, in test [2] (setting [3]), the IC50 was in the range of 1000 to 10000 nM.
On the same count and under the same terms, in the case of `CCOc1ccc(Nc2nc(Nc3ccn4ccnc4c3)cc(N3CCN(C)[C@@H](C)C3)n2)cn1` [Example 52, (S)-6-(3,4-Dimethylpiperazin-1-yl)-N2-(6-ethoxypyridin-3-yl)-N4-(imidazo[1,2-a]pyridin-7-yl) pyrimidine-2,4-diamine] it was 1000 to 10000 nM.
On the same count and under the same terms, in the case of `CC(C)Oc1ccc(Nc2nc(Nc3ccn4ccnc4c3)cc(N3CCN(C)[C@@H](C)C3)n2)cn1` [Example 56, (S)-6-(3,4-dimethylpiperazin-1-yl)-N4-(imidazo[1,2-a]pyridin-7-yl)-N2-(6-isopropoxypyridin-3-yl)pyrimidine-2,4-diamine] it was 1000 to 10000 nM; in that of `CC(C)Oc1ccc(Nc2nc(Nc3ccn4ccnc4c3)cc(N3CCN(C)CC3)n2)cn1` [Example 59, N4-(imidazo[1,2-a]pyridin-7-yl)-N2-(6-isopropoxypyridin-3-yl)-6-(4-methylpiperazin-1-yl) pyrimidine-2,4-diamine], 1000 to 10000 nM.
Same read-out and setting: in the case of `C=CCOc1ccc(Nc2nc(Nc3ccn4ccnc4c3)cc(N3CCOCC3)n2)cn1` [Example 76, N2-(6-(allyloxy)pyridin-3-yl)-N4-(imidazo[1,2-a]pyridin-7-yl)-6-morpholinopyrimidine-2,4-diamine] it was 1000 to 10000 nM.

The record behind these values is patent US10538521B2, “Pyrimidine derivative having antimalarial activity” (CARNA BIOSCIENCES, INC., priority 2016, dated 2020).
